Source: US20030083237A1, “Anti-angiogenic peptides for cancer treatment” (priority 2001, published 2003)
Ends that are not written are not given here. Peptide text beside a SMILES is read from it.

Test system: BCE cells (Bovine Capillary Endothelial cells)
Format: cell-based
Conditions: for inhibiting the growth of BCE cells (in-vitro inhibition studies, FIG. 2): result in words
Protocol: The inhibition of said peptides on the endothelial cells was performed on BCE cells (Bovine Capillary Endothelial cells) as shown in Example 9. The inhibition of said peptide on the endothelial cells was performed on BCE cells (Folkman et al, Proceedings of the National Academy of Sciences USA. 76: 5217-5221 (1979)). The medium contains 90% DMEM (Dulbecco's Modified Eagle Medium), 10% FBS (fetal bovine serum), and 2 ng/mL of bFGF (basic fibroblast growth factor). A 24-well platelet was used for the growth of the BCE cells. To each well, 8,000-10,000 cells and 0.5 mL of the medium were added. The medium in each of the test wells was replaced by medium containing P1, P2, P3, P4, P5, P6, P7, or AK38 after 12 hours and continue to grow 5-7 days at 37° C. the BCE cells, in comparison to the control samples, to evaluate the inhibition on the growth of endothelial cells. The concentration inhibiting 50% of the cell growth is defined as IC50. […] (FIG. 6)

Compound | IC50 | inhibiting the growth of BCE cells (in-vitro inhibition studies, FIG. 2)
CSCC[C@H](NC(=O)[C@@H](NC(=O)[C@H](Cc1ccc(O)cc1)NC(C)=O)[C@@H](C)O)C(=O)N[C@@H](CC(N)=O)C(=O)N1CCC[C@H]1C(=O)N[C@@H](CCCNC(=N)N)C(=O)N[C@@H](CCCCN)C(=O)N[C@@H](CC(C)C)C(=O)N[C@@H](Cc1ccccc1)C(=O)N[C@@H](CC(=O)O)C(=O)N[C@@H](Cc1ccc(O)cc1)C(N)=O [Peptide P5, Tyr-Thr-Met-Asn-Pro-Arg-Lys-Leu-Phe-Asp-Tyr] (Ac-YTMNPRKLFDY-NH2) | 45 nM | very effective
QQWAAQEPHRHSTFIPGTNKWAGLEKNY [Peptide P3, protected form of peptide {3} of AK38 kringle] |  | minor inhibition effect
CC[C@H](C)[C@H](NC(=O)[C@H](CC(=O)O)NC(=O)CNC(=O)[C@H](CC(=O)O)NC(=O)[C@@H]1CCCN1C(=O)[C@H](CC(N)=O)NC(=O)[C@H](CCCNC(=N)N)NC(C)=O)C(=O)N[C@@H](CC(N)=O)C(=O)NCC(=O)N1CCC[C@H]1C(=O)N[C@@H](Cc1c[nH]c2ccccc12)C(N)=O [Peptide P4, Arg-Asn-Pro-Asp-Gly-Asp-Ile-Asn-Gly-Pro-Trp] (Ac-RNPDGDINGPW-NH2) | 100 nM | very effective
MFGNGKGYRGKKATTVTGTP [Peptide P2, protected form of peptide {2} of AK38 kringle] |  | none of the four peptides (P1, P2, P6, and P7) is significantly effective
IVPSLGPPSEQD [Peptide P1, protected form of peptide {1} of AK38 kringle] |  | none of the four peptides (P1, P2, P6, and P7) is significantly effective
ASSSFD [Peptide P7, protected form of peptide {7} of AK38 kringle] |  | none of the four peptides (P1, P2, P6, and P7) is significantly effective
Asp-Ile-Pro-Leu (DIPL; printed: Asp-Ile-Pro-Leu) [Peptide P6, protected form of peptide {6} of AK38 kringle] |  | none of the four peptides (P1, P2, P6, and P7) is significantly effective
